Measurements from patent publication US7265152B2 (ViroPharma Incorporated, priority 2002, dated 2007).
Where two headings read alike, the source gives them in different places.

Columns and labels:
[1] = tested on: HCV replicon (BB7 sequence) in Huh-7-Clone A cells; assay: HCV replicon assay: ELISA of NS5A protein in replicon-containing cells (Inhibition of Viral RNA Replication); format: cell-based; conditions: Hepatitis C virus, read-out: Replicon
In short: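 Huh-7-Clone A cells carrying subgenomic BB7 HCV replicon (G418-selectable) incubated 72 h with compound. NS5A protein quantified by cell ELISA: glutaraldehyde fixation, anti-NS5A monoclonal plus HRP secondary, TMB read at OD 650 nm. EC50 derived from 8-point serial dilution dose curve.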

[2] = target: T1, HCV NS5B (Hepatitis C virus genotype 1b, UniProt Q9WMX2); assay: Inhibition of viral RNA-dependent RNA polymerase (RdRp), in vitro biochemical assay; design: species or system HCV genotype 1b virus (BB7); conditions: read-out: HCV pol-BB7 IC50
T1 construct: fusion protein, of which the carboxyl terminal 21 amino acids were removed to enhance its solubility; His tag (GSHHHHHH); made in house; host or cells: E. coli
In short: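 Purified recombinant NS5B from a genotype 1b consensus (BB7), His-tagged, E. coli-expressed, with the C-terminal 21 residues deleted. Inhibition of RdRp activity in vitro was measured, and IC50 is the concentration giving 50% inhibition.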

[3] = Huh-7-Clone A, NS5A ELISA, 72-hour incubation, ranges of EC50
[4] = purified His-tagged NS5B (BB7), carboxyl terminal 21 amino acids removed
[5] = ranges of EC50 in HCV replicon assay

Structure (SMILES): CNC(=O)c1c(-c2ccccc2Cl)oc2ccc(OC)cc12 [Example 66, 2-(2-Chloro-phenyl)-5-methoxy-benzofuran-3-carboxylic acid methylamide]
- EC50 [1, 3]: > 30 µM
- IC50 [2, 4]: 5000 to 30000 nM

Structure (SMILES): CNC(=O)c1c(-c2ccccc2)oc2cc(OC)ccc12 [Example 67, 6-Methoxy-2-phenyl-benzofuran-3-carboxylic acid methylamide]
- EC50 [1, 3]: < 10 µM
- IC50 [2, 4]: 500 to 5000 nM

Structure (SMILES): CNC(=O)c1c(-c2ccco2)oc2ccc(OC)cc12 [Example 68, 2-Furan-2-yl-5-methoxy-benzofuran-3-carboxylic acid methylamide]
- EC50 [1, 3]: < 30 µM
- IC50 [2, 4]: 500 to 5000 nM

Structure (SMILES): CNC(=O)c1c(-c2ccc(C)c(F)c2)oc2ccc(OC)cc12 [Example 69, 2-(3-Fluoro-4-methyl-phenyl)-5-methoxy-benzofuran-3-carboxylic acid methylamide]
- EC50 [1, 3]: < 10 µM
- IC50 [2, 4]: ≤ 500 nM

Structure (SMILES): CNC(=O)c1c(-c2ccc(Br)cc2)oc2ccc(OC)cc12 [Example 70, 2-(4-Bromo-phenyl)-5-methoxy-benzofuran-3-carboxylic acid methylamide]
- EC50 [1, 3]: < 10 µM
- IC50 [2, 4]: ≤ 500 nM

Structure (SMILES): CNC(=O)c1c(-c2ccc(F)c(C)c2)oc2ccc(OC)cc12 [Example 71, 2-(4-Fluoro-3-methyl-phenyl)-5-methoxy-benzofuran-3-carboxylic acid methylamide]
- EC50 [1, 3]: < 30 µM
- IC50 [2, 4]: ≤ 500 nM

Structure (SMILES): CNC(=O)c1c(-c2ccc(F)cc2)oc2ccc(Cl)cc12 [Example 73, 5-Chloro-2-(4-fluoro-phenyl)-benzofuran-3-carboxylic acid methylamide]
- EC50 [1, 3]: < 10 µM
- IC50 [2, 4]: 500 to 5000 nM

Structure (SMILES): CNC(=O)c1c(-c2ccccc2)oc2ccc(C(C)(C)C)cc12 [Example 74, 5-tert-Butyl-2-phenyl-benzofuran-3-carboxylic acid methylamide]
- EC50 [1, 3]: < 10 µM
- IC50 [2, 4]: ≤ 500 nM

Structure (SMILES): CNC(=O)c1c(-c2ccc(C)cc2)oc2ccc(Cl)cc12 [Example 75, 5-Chloro-2-p-tolyl-benzofuran-3-carboxylic acid methylamide]
- EC50 [1, 3]: < 10 µM
- IC50 [2, 4]: ≤ 500 nM

Structure (SMILES): CNC(=O)c1c(-c2ccc(F)c(Cl)c2)oc2ccc(OC)cc12 [Example 76, 2-(3-Chloro-4-fluoro-phenyl)-5-methoxy-benzofuran-3-carboxylic acid methylamide]
- EC50 [1, 3]: < 10 µM
- IC50 [2, 4]: 500 to 5000 nM

Structure (SMILES): CNC(=O)c1c(-c2ccc(Cl)c(F)c2)oc2ccc(OC)cc12 [Example 77, 2-(4-Chloro-3-fluoro-phenyl)-5-methoxy-benzofuran-3-carboxylic acid methylamide]
- EC50 [1, 3]: < 10 µM
- IC50 [2, 4]: ≤ 500 nM

Structure (SMILES): CNC(=O)c1c(-c2ccccc2)oc2ccc(COC)cc12 [Example 78, 5-Methoxymethyl-2-phenyl-benzofuran-3-carboxylic acid methylamide]
- EC50 [1, 3]: < 30 µM
- IC50 [2, 4]: 500 to 5000 nM

Structure (SMILES): CNC(=O)c1c(-c2ccc(F)cc2)oc2cc(C)c(OC(C)C)cc12 [Example 79, 2-(4-Fluoro-phenyl)-5-isopropoxy-6-methyl-benzofuran-3-carboxylic acid methylamide]
- EC50 [1, 3]: < 10 µM
- IC50 [2, 4]: ≤ 500 nM

Structure (SMILES): CNC(=O)c1c(-c2ccc(F)cc2)oc2c(C)cc(OC(C)C)cc12 [Example 80, 2-(4-Fluoro-phenyl)-5-isopropoxy-7-methyl-benzufuran-3-carboxylic acid methylamide]
- EC50 [1, 3]: < 30 µM
- IC50 [2, 4]: 500 to 5000 nM

Structure (SMILES): CNC(=O)c1c(-c2ccc(F)cc2)oc2cc(C)c(OC)cc12 [Example 81, 2-(4-Fluoro-phenyl)-5-methoxy-6-methyl-benzofuran-3-carboxylic acid methylamide]
- EC50 [1, 3]: < 10 µM
- IC50 [2, 4]: ≤ 500 nM

Structure (SMILES): CNC(=O)c1c(-c2ccc(F)cc2)oc2ccc(F)cc12 [Example 82, 5-Fluoro-2-(4-fluoro-phenyl)-benzofuran-3-carboxylic acid methylamide]
- EC50 [1, 3]: < 30 µM
- IC50 [2, 4]: 500 to 5000 nM

Structure (SMILES): CCc1ccc(-c2oc3ccc(F)cc3c2C(=O)NC)cc1 [Example 83, 2-(4-Ethyl-phenyl)-5-fluoro-benzofuran-3-carboxylic acid methylamide]
- EC50 [1, 3]: < 10 µM
- IC50 [2, 4]: ≤ 500 nM

Structure (SMILES): CCc1ccc2oc(-c3ccccc3)c(C(=O)NC)c2c1 [Example 84, 5-Ethyl-2-phenyl-benzofuran-3-carboxylic acid methylamide]
- EC50 [1, 3]: < 30 µM
- IC50 [2, 4]: 500 to 5000 nM

Structure (SMILES): CNC(=O)c1c(-c2ccc(Cl)s2)oc2ccc(OC)cc12 [Example 85, 2-(5-Chloro-thiophen-2-yl)-5-methoxy-benzofuran-3-carboxylic acid methylamide]
- EC50 [1, 3]: < 10 µM
- IC50 [2, 4]: ≤ 500 nM

Structure (SMILES): CNC(=O)c1c(-c2ccccc2)oc2ccc(C(C)C)cc12 [Example 86, 5-Isopropyl-2-phenyl-benzofuran-3-carboxylic acid methylamide]
- EC50 [1, 3]: < 10 µM
- IC50 [2, 4]: ≤ 500 nM

Structure (SMILES): CCOc1ccc2oc(-c3ccc(Cl)s3)c(C(=O)NC)c2c1 [Example 87, 2-(5-Chloro-thiophen-2-yl)-5-ethoxy-benzofuran-3-carboxylic acid methylamide]
- EC50 [1, 3]: < 10 µM
- IC50 [2, 4]: ≤ 500 nM

Structure (SMILES): CNC(=O)c1c(-c2cccs2)oc2ccc(OC)cc12 [Example 88, 5-Methoxy-2-thiophen-2-yl-benzofuran-3-carboxylic acid methylamide]
- EC50 [1, 3]: < 30 µM
- IC50 [2, 4]: 500 to 5000 nM

Structure (SMILES): CNC(=O)c1c(-c2cccnc2)oc2ccc(Cl)cc12 [Example 89, 5-Chloro-2-pyridin-3-yl-benzofuran-3-carboxylic acid methylamide]
- EC50 [1, 3]: > 30 µM
- IC50 [2, 4]: 500 to 5000 nM

Structure (SMILES): CNC(=O)c1c(-c2ccc(Br)c(F)c2)oc2ccc(OC(C)C)cc12 [Example 90, 2-(4-Bromo-3-fluoro-phenyl)-5-isopropoxy-benzofuran-3-carboxylic acid methylamide]
- EC50 [1, 5]: < 10 µM
- IC50 ([2]; HCV NS5B RdRp, BB7 genotype 1b): ≤ 500 nM

Structure (SMILES): CNC(=O)c1c(-c2ccc(F)cc2)oc2cc(Br)c(OC(C)C)cc12 [Example 92, 6-Bromo-2-(4-fluoro-phenyl)-5-isopropoxy-benzofuran-3-carboxylic acid methylamide]
- EC50 [1, 5]: < 1 µM
- IC50 ([2]; HCV NS5B RdRp, BB7 genotype 1b): ≤ 500 nM

Structure (SMILES): CNC(=O)c1c(-c2ccc(N3CCOCC3)cc2)oc2ccc(OC)cc12 [Example 93, 5-Methoxy-2-(4-morpholin-4-yl-phenyl)-benzofuran-3-carboxylic acid methylamide]
- EC50 [1, 5]: > 30 µM
- IC50 ([2]; HCV NS5B RdRp, BB7 genotype 1b): 500 to 5000 nM

Structure (SMILES): CNC(=O)c1c(-c2ccccc2)oc2cc(OC)c(OC)cc12 [Example 94, 5,6-Dimethoxy-2-phenyl-benzofuran-3-carboxylic acid methylamide]
- EC50 [1, 5]: < 1 µM
- IC50 ([2]; HCV NS5B RdRp, BB7 genotype 1b): ≤ 500 nM

Structure (SMILES): CNC(=O)c1c(-c2ccc(N3CCCC3)cc2)oc2ccc(OC(C)C)cc12 [Example 95, 5-Isopropoxy-2-(4-pyrrolidin-1-yl-phenyl)-benzofuran-3-carboxylic acid methylamide]
- EC50 [1, 5]: < 30 µM
- IC50 ([2]; HCV NS5B RdRp, BB7 genotype 1b): 5000 to 30000 nM

Structure (SMILES): CNC(=O)c1c(-c2ccncc2)oc2ccc(F)cc12 [Example 96, 5-Fluoro-2-pyridin-4-yl-benzofuran-3-carboxylic acid methylamide]
- EC50 [1, 5]: > 30 µM
- IC50 ([2]; HCV NS5B RdRp, BB7 genotype 1b): 500 to 5000 nM

Structure (SMILES): CNC(=O)c1c(-c2ccc(F)cc2)oc2cc(C)c(OC(C)C(=O)O)cc12 (stereo not shown) [Example 97, 2-[2-(4-Fluoro-phenyl)-6-methyl-3-methylcarbamoyl-benzofuran-5-yloxy]-propionic acid]
- EC50 [1, 5]: > 30 µM
- IC50 ([2]; HCV NS5B RdRp, BB7 genotype 1b): 5000 to 30000 nM

Structure (SMILES): CNC(=O)c1c(-c2ccc(F)cc2)oc2cc(NC(C)=O)c(OC(C)C)cc12 [Example 98, 6-Acetylamino-2-(4-fluoro-phenyl)-5-isopropoxy-benzofuran-3-carboxylic acid methylamide]
- EC50 [1, 5]: < 10 µM
- IC50 ([2]; HCV NS5B RdRp, BB7 genotype 1b): ≤ 500 nM

Structure (SMILES): CNC(=O)c1c(-c2ccc(N)cc2)oc2ccc(OC(C)C)cc12 [Example 99, 2-(4-Amino-phenyl)-5-isopropoxy-benzofuran-3-carboxylic acid methylamide]
- EC50 [1, 5]: < 30 µM
- IC50 ([2]; HCV NS5B RdRp, BB7 genotype 1b): 500 to 5000 nM

Structure (SMILES): CNC(=O)c1c(-c2ccc(F)cc2)oc2cc(NCCN3CCOCC3)c(OC(C)C)cc12 [Example 100, 2-(4-Fluoro-phenyl)-5-isopropoxy-6-(2-morpholin-4-yl-ethylamino)-benzofuran-3-carboxylic acid methylamide]
- EC50 [1, 5]: < 30 µM
- IC50 ([2]; HCV NS5B RdRp, BB7 genotype 1b): 500 to 5000 nM

Structure (SMILES): CNC(=O)c1c(-c2ccc(F)cc2)oc2cc(N3CCCCC3)c(OC(C)C)cc12 [Example 101, 2-(4-Fluoro-phenyl)-5-isopropoxy-6-piperidin-1-yl-benzofuran-3-carboxylic acid methylamide]
- EC50 [1, 5]: < 1 µM
- IC50 ([2]; HCV NS5B RdRp, BB7 genotype 1b): ≤ 500 nM

Structure (SMILES): CNC(=O)c1c(-c2ccc(F)cc2)oc2cc(OC)c(OC)cc12 [Example 102, 2-(4-Fluoro-phenyl)-5,6-dimethoxy-benzofuran-3-carboxylic acid methylamide]
- EC50 [1, 5]: < 1 µM
- IC50 ([2]; HCV NS5B RdRp, BB7 genotype 1b): ≤ 500 nM

Structure (SMILES): CNC(=O)c1c(-c2ccc(F)cc2)oc2cc(N3CCOCC3)c(OC)cc12 [Example 103, 2-(4-Fluoro-phenyl)-5-methoxy-6-morpholin-4-yl-benzofuran-3-carboxylic acid methylamide]
- EC50 [1, 5]: < 1 µM
- IC50 ([2]; HCV NS5B RdRp, BB7 genotype 1b): ≤ 500 nM

Structure (SMILES): CNC(=O)c1c(-c2ccc(F)c(O)c2)oc2ccc(OC(C)C)cc12 [Example 105, 2-(4-Fluoro-3-hydroxy-phenyl)-5-isopropoxy-benzofuran-3-carboxylic acid methylamide]
- EC50 [1, 5]: < 30 µM
- IC50 ([2]; HCV NS5B RdRp, BB7 genotype 1b): 5000 to 30000 nM

Structure (SMILES): CNC(=O)c1c(-c2ccc(C#N)cc2)oc2ccc(OC(C)C)cc12 [Example 106, 2-(4-Cyano-phenyl)-5-isopropoxy-benzofuran-3-carboxylic acid methylamide]
- EC50 [1, 5]: < 30 µM
- IC50 ([2]; HCV NS5B RdRp, BB7 genotype 1b): 500 to 5000 nM
